From patent publication US20100041089A1, “IMPROVED METHOD FOR DETECTING CHEMICAL […]” (priority 2006, published 2010)

System: yeast genes (expressed mRNA)
Assay: DNA chip measurement of expressed mRNA of yeast genes after culture with a toxic chemical substance
Assay type: cell-based, Saccharomyces cerevisiae S288C
Protocol: Yeast (Saccharomyces cerevisiae S288C (a SUC2mal mel gap2 CUP1)) were cultured at 25° C. on YPD medium (yeast extract 1%, polypeptone 2%, glucose 2%). One of toxic chemical substances was added to the cell at logarithmic growth phase, and the cell was further cultured for two hours. Cell was cultured without any chemical substance in the same condition, and was used as a control. Concentrations of the chemical substances were defined to inhibit the growth of the yeast but not lead to death.
After the completion of cultivation, the culture was centrifuged to collect the cells. To the cells, sodium acetate buffer (50 mM sodium acetate, 10 mM EDTA, 1% SDS) was added, and the mixture was shaken at 65° C. for five minutes, followed by returning to room temperature, and obtaining the supernatant, which procedure was repeated two times. To the supernatant, ½ amount of a solution of phenol/chloroform (1:1) was added, and the mixture was centrifuged to give a supernatant, an equal amount of chloroform was added, and the mixture was centrifuged to give a supernatant. To the supernatant, an equal amount of isopropanol containing 0.3 M sodium acetate was added, and the mixture was allowed to stand at room temperature for 30 minutes, after which the mixture was centrifuged to give sediment of the whole RNAs. Seventy % ethanol was added to the sediment, and the mixture was again centrifuged to give sediment, which was then dried and dissolved in water. mRNA was isolated from the whole RNAs as followings. In view of the fact that a poly A chain is attached to the 3′ terminus of mRNA, a polynucleotide having a poly T structure which was immobilized on the surface of latex beads was used to trap the mRNA, and then the mRNA was washed and eluted with spine column (Oligotex-dT30<Super>mRNA Purification Kit, Takara). Reverse transcription of the mRNA was conducted with a reverse transcriptase (Super Script II Reverse Transcriptase; catalogue No. 18064-014, GibcoBRL) using fluorescence-labeled nucleotides to give cDNAs that were introduced with Cy3-dUTP or Cy5-dUTP during the reverse transcription.
The labeled cDNAs were dissolved in TE buffer (10 mM Tris-HCl/1 mM EDTA, pH 8.0), and the solution was dropped on the DNA chip containing the whole genes of yeast (DNA Chip Research Inc. Japan) so that the cDNAs were hybridized on the DNA chip at 65° C. for over 12 hours. The fluoresces intensity of the DNA chip was read with a scanner, and the ratio relative to the fluorescence intensity resulting from the absence of chemical substance was estimated as the following, which is shown in Tables 1 to 9.
In the Tables, “Intensity” indicated in the rightmost column is a value of the level of expressed mRNA of each gene in control cells as divided by the average level of the expressions of the whole genes. A gene of which mRNA level is lower in control, and is higher in cases of addition of chemical substance, is especially useful in the detection of toxic substances.
Here, when a ratio of an amount of mRNA expressed in the presence of the chemical substance to an amount of mRNA expressed in the absence of the chemical substance is two or more, then it is considered significant.

SMILES: CCCCC[C@H](O)CC(=O)CCc1ccc(O)c(OC)c1 [(13), Gingerol]
- The level of expressed mRNA in the presence of chemical substance/The level of expressed mRNA in the absence of chemical substance, yeast gene YDL067C (gene YDL067C (mitochondria-located protein gene), yeast cultured two hours with chemical substance, DNA chip fluorescence ratio to control): 0.6
- The level of expressed mRNA in the presence of chemical substance/The level of expressed mRNA in the absence of chemical substance, yeast gene YDR079W (gene YDR079W (mitochondria-located protein gene), yeast cultured two hours with chemical substance, DNA chip fluorescence ratio to control): 1.3
- level of expressed mRNA in the presence of chemical substance / level in the absence of chemical substance (yeast gene YAL018C, cultured two hours with the chemical substance): 1.3
- The level of expressed mRNA in the presence of chemical substance/The level of expressed mRNA in the absence of chemical substance (yeast gene YAR028W, cultured two hours with substance): 1.4
- level of expressed mRNA in the presence of chemical substance / level in the absence of chemical substance (yeast gene YAR047C, cultured two hours with the chemical substance): 1.4
- level of expressed mRNA in the presence of chemical substance / level in the absence of chemical substance (yeast gene YAR064W, cultured two hours with the chemical substance): 1.1
- level of expressed mRNA in the presence of chemical substance / level in the absence of chemical substance (yeast gene YBL044W, cultured two hours with the chemical substance): 0.7
- The level of expressed mRNA in the presence of chemical substance/The level of expressed mRNA in the absence of chemical substance (yeast gene YBL048W, cultured two hours with substance): 2.7
- level of expressed mRNA in the presence of chemical substance / level in the absence of chemical substance (yeast gene YBR012C, cultured two hours with the chemical substance): 2.1
- The level of expressed mRNA in the presence of chemical substance/The level of expressed mRNA in the absence of chemical substance (yeast gene YBR047W, cultured two hours with substance): 1.7
- The level of expressed mRNA in the presence of chemical substance/The level of expressed mRNA in the absence of chemical substance (yeast gene YBR062C, cultured two hours with substance): 2.8
- level of expressed mRNA in the presence of chemical substance / level in the absence of chemical substance (yeast gene YBR066C, cultured two hours with the chemical substance): 0.6
- level of expressed mRNA in the presence of chemical substance / level in the absence of chemical substance (yeast gene YBR124W, cultured two hours with the chemical substance): 0.9
- level of expressed mRNA in the presence of chemical substance / level in the absence of chemical substance (yeast gene YBR162C, cultured two hours with the chemical substance): 0.7
- The level of expressed mRNA in the presence of chemical substance/The level of expressed mRNA in the absence of chemical substance (yeast gene YBR185C, mitochondria-located protein gene, cultured two hours with substance): 1.0
- level of expressed mRNA in the presence of chemical substance / level in the absence of chemical substance (yeast gene YBR287W, cultured two hours with the chemical substance): 3.4
- level of expressed mRNA in the presence of chemical substance / level in the absence of chemical substance (yeast gene YCL042W, cultured two hours with the chemical substance): 7.5
- level of expressed mRNA in the presence of chemical substance / level in the absence of chemical substance (yeast gene YCL056C, cultured two hours with the chemical substance): 1.3
- level of expressed mRNA in the presence of chemical substance / level in the absence of chemical substance (yeast gene YCR007C, cultured two hours with the chemical substance): 1.5
- The level of expressed mRNA in the presence of chemical substance/The level of expressed mRNA in the absence of chemical substance (yeast gene YCR030C, cultured two hours with the chemical substance): 1.7
- level of expressed mRNA in the presence of chemical substance / level in the absence of chemical substance (yeast gene YDL046W, cultured two hours with the chemical substance): 1.5
- The level of expressed mRNA in the presence of chemical substance/The level of expressed mRNA in the absence of chemical substance (yeast gene YDL174C, cultured for two hours with substance): 5.9
- The level of expressed mRNA in the presence of chemical substance/The level of expressed mRNA in the absence of chemical substance (yeast gene YDR001C, cultured for two hours with substance): 2.8
- level of expressed mRNA in the presence of chemical substance / level in the absence of chemical substance (yeast gene YDR090C, cultured two hours with the chemical substance): 0.8
- level of expressed mRNA in the presence of chemical substance / level in the absence of chemical substance (yeast gene YDR128W, cultured two hours with the chemical substance): 1.1
- level of expressed mRNA in the presence of chemical substance / level in the absence of chemical substance (yeast gene YDR133C, cultured two hours with the chemical substance): 0.1
- The level of expressed mRNA in the presence of chemical substance/The level of expressed mRNA in the absence of chemical substance (yeast gene YDR214W, cultured two hours with substance): 5.3
- level of expressed mRNA in the presence of chemical substance / level in the absence of chemical substance (yeast gene YDR250C, cultured two hours with the chemical substance): 1.2
- level of expressed mRNA in the presence of chemical substance / level in the absence of chemical substance (yeast gene YDR278C, cultured two hours with the chemical substance): 0.7
- level of expressed mRNA in the presence of chemical substance / level in the absence of chemical substance (yeast gene YDR281C, cultured two hours with the chemical substance): 0.7
- level of expressed mRNA in the presence of chemical substance / level in the absence of chemical substance (yeast gene YDR366C, cultured two hours with the chemical substance): 0.8
- The level of expressed mRNA in the presence of chemical substance/The level of expressed mRNA in the absence of chemical substance (yeast gene YDR377W, mitochondria-located protein gene, cultured two hours with substance): 0.7
- The level of expressed mRNA in the presence of chemical substance/The level of expressed mRNA in the absence of chemical substance (yeast gene YDR486C, cultured two hours with substance): 1.7
- The level of expressed mRNA in the presence of chemical substance/The level of expressed mRNA in the absence of chemical substance (yeast gene YDR506C): 0.3
- The level of expressed mRNA in the presence of chemical substance/The level of expressed mRNA in the absence of chemical substance (yeast gene YDR533C, cultured two hours with substance): 3.0
- The level of expressed mRNA in the presence of chemical substance/The level of expressed mRNA in the absence of chemical substance (yeast gene YEL024W, mitochondria-located protein gene, cultured two hours with substance): 0.6
- The level of expressed mRNA in the presence of chemical substance/The level of expressed mRNA in the absence of chemical substance (yeast gene YER037W, cultured two hours with substance): 3.0
- The level of expressed mRNA in the presence of chemical substance/The level of expressed mRNA in the absence of chemical substance (yeast gene YER079W, cultured two hours with substance): 2.1
- The level of expressed mRNA in the presence of chemical substance/The level of expressed mRNA in the absence of chemical substance (yeast gene YFL014W, DNA repair protein genes, cultured two hours with substance): 15.2
- The level of expressed mRNA in the presence of chemical substance/The level of expressed mRNA in the absence of chemical substance (yeast gene YFL032W, cultured two hours with substance): 2.4
- The level of expressed mRNA in the presence of chemical substance/The level of expressed mRNA in the absence of chemical substance (yeast gene YFL044C, cultured two hours with substance): 4.7
